Key:
[1] = system: ds26 (DNA, duplex) CAATCGGATCGAATTCGATCCGATTG; experiment: ITC; conditions: Na+ 100 mM
[2] = system: human telomeric G4 DNA, dAGGG(TTAGGG)3 (DNA, G4) AGGGTTAGGGTTAGGGTTAGGG; experiment: ITC; conditions: 298.15 K; 64 μM DNA in cell, 700 μM peptide in syringe
[3] = system: human telomeric G4 DNA, dAGGG(TTAGGG)3 (DNA, G4) AGGGTTAGGGTTAGGGTTAGGG; experiment: CD melting (295 nm); conditions: Na+ 100 mM; peptide concentration not given
[4] = system: human telomeric G4 DNA, dAGGG(TTAGGG)3 (DNA, G4) AGGGTTAGGGTTAGGGTTAGGG; experiment: EMSA; conditions: 30 μM G4; room temperature; up to 120 μM peptide
[5] = system: human telomeric G4 DNA, dAGGG(TTAGGG)3 (DNA, G4) AGGGTTAGGGTTAGGGTTAGGG; experiment: thiazole orange displacement (fluorescence); conditions: 298 K; at ~8.4 μM peptide; thiazole orange displaced; 0.25 μM G4, 0.50 μM TO

CC(C)[C@H](N)C(=O)N[C@@H](CCC(=O)N[C@@H](CCC(=O)O)C(=O)O)C(=O)N[C@@H](CCC(=O)O)C(=O)O (racemic)
Ka [1]: 3360 M⁻¹ | binding [2]: no | Tm [3]: ~ -1 °C | binding [4]: no | % TO displacement [5]: ~ 6.5%
